Measurements taken from article PMC7509035, “[^68Ga]ABY-028: an albumin-binding domain (ABD) protein-based imaging tracer for positron emission tomography (PET) studies of altered vascular permeability and predictions of albumin-drug conjugate transport” (EJNMMI Research, 2020).
“Also recorded” adds a separate entry of the source.

Tests used:
[1] = system: FaDu xenografts; test: Longitudinal dual tracer PET in two FaDu xenografts; format: in vivo, human tumor xenograft in NIH-Foxn1mu rat; conditions: rat, [^18F]FDG
Experimental: (§1) A431 (human epidermoid carcinoma) and FaDu (human squamous carcinoma of the hypopharynx) cell lines were purchased from American Type Culture Collection (ATCC). The cells were cultured in Dulbecco’s Modified Eagle’s Medium (4500 mg/L D-glucose containing L-glutamine) and were maintained at 37 °C in a humidified atmosphere, containing 5% CO2. All media were additionally supplemented with 1 mM sodium pyruvate, 100 units penicillin/mL, 100 μg streptomycin/mL, and 10% fetal bovine serum (Gibco). Media for FaDu cells were further supplemented with 0.1 mM non-essential amino acids and 2 mM HEPES. The integrity of the cell lines was verified with short tandem repeat profiling cell authentication analysis (LGC Standards).
(§2) Rodents were anaesthetized (1.5% isoflurane (Virbac, Carros Cedex, France) blended with air (7:3) in a vaporizer (E-Z systems) delivered through a Microflex non-rebreather mask (Euthanex Corp)) and then i.v. injected (tail vein) with the radiotracer. PET imaging was performed using a microPET Focus 120 (CTI Concorde Microsystems, Knoxville, TN, USA). Data were acquired in list mode and reconstructed using Filtered Back Projection for the constant bed motion (CBM) scans or, to increase the spatial resolution in the dynamic scans, Ordered Subset […] in 2 dimensions, 4 iterations, and 16 subsets. Data, normalized and corrected for randoms, dead time, and radioactivity decay, were processed using MicroPET Manager and evaluated using the Inveon Research Workplace (IRW) software (Siemens Medical Systems, Malvern, PA, USA). The ROI selections were based on the PET images and the radioactivity in ROIs was calculated as mean or maximum standard uptake values (SUVmean or SUVmax) normalized to body weight. Blood ROIs were delineated on the left ventricle of the heart in the first frames of the scan. Liver ROIs were drawn on one lobe. Muscle ROIs were drawn on the front (rat) and hind (mouse) leg muscle on the images summed over the entire scan. […] Growth of the tumor xenografts was monitored by caliper measurements. […]

[2] = system: A431 xenografts; test: PET uptake in A431 xenografts after nitroglycerin (NG) ointment; format: in vivo, human tumor xenograft in NIH-Foxn1mu rat; conditions: NG ointment 1 mg/tumor cutaneous, [^68Ga]ABY-028 uptake
Experimental: as §1, §2

Row | SMILES | increase of uptake between early and late imaging, day 0 ([1]; both FaDu tumors, 50 to 160 min, day 0) | increase of uptake between early and late imaging, day 3 ([1]; both FaDu tumors, 50 to 160 min, day 3) | decrease of SUV in tumor center, left tumor, day 3 ([1]; left FaDu tumor, area in center extending to one edge, both time points) | effect of NG on tracer radioactivity in A431 xenografts [2] | effect of NG on tracer radioactivity in A431 xenografts ([2]; listed as NG) | effect of NG on tracer radioactivity in A431 xenografts ([2]; listed as Nitroglycerin (NG))
1 | O=C[C@H]([18F])[C@@H](O)[C@H](O)[C@H](O)CO [[^18F]FDG, [2-^18F]-2-Fluoro-2-deoxy-D-glucose] | approximately 20% | ~35% | approximately 30% | – | – | –
2 | O=[N+]([O-])OCC(CO[N+](=O)[O-])O[N+](=O)[O-] [nitroglycerin, glyceryltrinitrate] | – | – | – | increased radioactivity in the A431 xenografts | A more rapid increase in focal radioactivity levels; also recorded: increased uptake of albumin-bound [^68Ga]ABY-028 | NG-induced changes are revealed by the SUVmax
